Measurements: US20120251551A1, “Substituted (Heteroarylmethyl)thiohydantoins” (BAYER PHARMA AKTIENGESELLSCHAFT, priority 2009, published 2012)
Substitutions are numbered along the chain they refer to.

What was measured:
[1] = biological target: T1, wild-type human androgen receptor (Homo sapiens, UniProt P10275); assay: Cell-based transactivation assay for wild-type human androgen receptor (PC-3 cells, MMTV-luciferase reporter)
T1 construct: expressed in transfected cells
T1 sequence (P10275 1-920): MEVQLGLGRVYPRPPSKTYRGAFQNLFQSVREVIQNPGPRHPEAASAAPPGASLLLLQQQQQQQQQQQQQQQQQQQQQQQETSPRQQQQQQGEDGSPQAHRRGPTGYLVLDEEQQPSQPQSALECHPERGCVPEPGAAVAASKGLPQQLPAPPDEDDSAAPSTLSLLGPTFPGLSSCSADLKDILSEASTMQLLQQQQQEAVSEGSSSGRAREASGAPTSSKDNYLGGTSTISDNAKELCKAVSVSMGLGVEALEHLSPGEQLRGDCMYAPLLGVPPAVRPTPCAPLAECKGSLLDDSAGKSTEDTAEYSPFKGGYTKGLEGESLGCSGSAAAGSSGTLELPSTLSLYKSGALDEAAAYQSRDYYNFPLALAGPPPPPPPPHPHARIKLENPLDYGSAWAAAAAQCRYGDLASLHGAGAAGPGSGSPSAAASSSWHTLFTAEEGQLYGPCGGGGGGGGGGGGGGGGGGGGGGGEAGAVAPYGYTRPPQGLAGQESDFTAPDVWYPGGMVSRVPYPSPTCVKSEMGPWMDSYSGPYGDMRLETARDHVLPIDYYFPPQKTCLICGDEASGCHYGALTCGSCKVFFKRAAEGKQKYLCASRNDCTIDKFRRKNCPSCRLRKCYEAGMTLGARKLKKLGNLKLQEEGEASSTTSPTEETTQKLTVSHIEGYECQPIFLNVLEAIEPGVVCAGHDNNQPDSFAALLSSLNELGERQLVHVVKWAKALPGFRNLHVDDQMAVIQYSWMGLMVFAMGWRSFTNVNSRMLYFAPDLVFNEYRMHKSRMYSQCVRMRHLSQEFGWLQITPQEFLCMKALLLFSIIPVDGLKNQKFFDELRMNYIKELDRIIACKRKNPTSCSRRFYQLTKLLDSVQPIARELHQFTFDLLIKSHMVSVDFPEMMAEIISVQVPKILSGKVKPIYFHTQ
Description: Cell-Based Transactivation Assay for Wild-Type Human Androgen Receptor
PC-3 cells (Kaighn et al., Invest. Urol. 17:16-23, 1979) stably transfected with the human androgen receptor (Swiss-Prot Acc. No. P10275, Entry Version 159, Sequence Version 2) and a reporter plasmid based on pGL4.14 (#E6691, Promega Corporation, Madison, Wis., USA) containing the MMTV promoter (Cato et al., EMBO J. 6:363-8, 1987) were used. They were grown in 5% charcoal-stripped medium and seeded at a concentration of 1000 cells per well in a 384-well plate. For determination of antagonistic activity, the plate additionally contained the compound to be tested at a concentration range varying from 5.12×10^−12 to 1×10^−5 M. The assay was performed in presence of 1×10^−10 R1881 (also known as methyltrienolone). After overnight incubation at 37° C. in a 5% CO2 atmosphere, 15 μl of Steady Glo Lysis and Detection reagent (Steady Glo Luciferase assay system E2550 from Promega Corporation. Madison, Wis., USA) were added. IC50 was calculated for anti-androgenic activity as well as percentage inhibition in presence of 2 μM compound in comparison to non-stimulated luciferase signal. Agonistic activity was determined using the same concentration range of compound in the absence of R1881 by measuring Luciferase activity as above. EC50 was calculated for androgenic activity. Assay/read plates were used (Polystyrol; 384, NV-white cell culture plates; Perkin Elmer).

[2] = biological target: T2, human androgen receptor W741L mutant (Homo sapiens, UniProt P10275, W742L); assay: Cell-based transactivation assay for human androgen receptor mutant W741L
T2 construct: expressed in transfected cells; host or cells: PC-3 cells, transient transfection with a pSG5-derived plasmid
T2 sequence (P10275 1-920 W742L): T1 sequence (P10275 1-920) with W742L
Description: Cell-Based Transactivation Assay for Human Androgen Receptor Mutant W741L or W741C
PC-3 cells (Kaighn et al., Invest. Urol. 17:16-23, 1979) were grown in 5% charcoal-stripped medium and seeded at a concentration of 10000 cells per well in a 96-well plate. They were transiently transfected with a pSG5-derived plasmid (#216201 from Stratagene, La Jolla, Calif., USA) coding for the human androgen receptor W741L or W741C mutant Mara et al., Cancer Research, 63: 149-153, 2003) and an MMTV-Luciferase reporter plasmid based on pGL4.14 14 (#E6691, Promega Corporation, Madison, Wis., USA). The compound to be tested was added at a concentration range varying from 1×10^−9 to 1×10 M together with 1×10^−10 R1881. After 24 h incubation at 37° C. in a 5% CO2 atmosphere, 100 μl of Steady Glo Lysis and Detection reagent (Steady Glo Luciferase assay system E2550 from Promega Corporation. Madison, Wis., USA) were added. Antagonistic activity was determined by measuring Luciferase activity in a Victor 3 Luminometer (PerkinElmer, Waltham, Mass., USA) using the Steady Glo Luciferase Assay (E2550, Promega). IC50 values were calculated for anti-androgenic activity.

[3] = test system: VCaP cells; assay: Proliferation assay with VCaP cells; assay type: cell-based; conditions: Homo sapiens, 168 h, R1881 (1×10^−10) stimulated growth, day 7, read-out: Antiproliferative activity VCaP IC50
Description: Proliferation Assay with VCaP Cells
VCaP cells ((Korenchuk et al., In Vivo 15: 163-168, 2001)) were seeded at 16 000 cells/well in 96-well plates in DMEM (F0445, Biochrom AG, Berlin, Germany) with phenol red supplemented with 10% charcoal-stripped serum. After 1 day, the cells were treated with R1881 (1×10^−10) and compound (day 0). Cell number was determined by Alamar Blue (DAL1100, Invitrogen, Life Technologies, Lohne, Germany) staining (2.5 h) at day 0 and day 7. Fluorescence was determined in Victor3 (Excitation 530 nm; emission 590 nm). Stimulated growth was defined as the signal measured at day 7 for cells treated only with R1881. Basal level was defined as the signal measured at day 7 for cells grown without R1881.

| Structure (SMILES) | EC50 [1] [nM] | IC50 [2] [nM] | IC50 [3] [nM] |
| --- | --- | --- | --- |
| COCCOc1ccc(CN2C(=S)N(c3ccc(C#N)c(C(F)(F)F)c3)C(=O)C2(C)C)cn1 [Example 11, 4-(3-{[6-(2-Methoxyethoxy)pyridin-3-yl]methyl}-4,4-dimethyl-5-oxo-2-thioxoimidazolidin-1-yl)-2-(trifluoromethyl)benzonitrile] | > 10000 | – | – |
| CN1CCCN(c2ccc(CN3C(=S)N(c4ccc(C#N)c(C(F)(F)F)c4)C(=O)C3(C)C)cn2)CC1 [Example 12, 4-(4,4-Dimethyl-3-{[6-(4-methyl-1,4-diazepan-1-yl)pyridin-3-yl]methyl}-5-oxo-2-thioxoimidazolidin-1-yl)-2-(trifluoromethyl)benzonitrile] | > 10000 | – | – |
| CC1(C)C(=O)N(c2ccc(C#N)c(C(F)(F)F)c2)C(=S)N1Cc1ccc(N2CCC(CO)CC2)nc1 [Example 14, 4-[3-({6-[4-(Hydroxymethyl)piperidin-1-yl]pyridin-3-yl}methyl)-4,4-dimethyl-5-oxo-2-thioxoimidazolidin-1-yl]-2-(trifluoromethyl)benzonitrile] | 6000 | – | – |
| CC1(C)C(=O)N(c2ccc(C#N)c(C(F)(F)F)c2)C(=S)N1Cc1ccc(N2CCNC2=O)nc1 [Example 25, 4-(4,4-Dimethyl-5-oxo-3-{[6-(2-oxoimidazolidin-1-yl)pyridin-3-yl]methyl}-2-thioxoimidazolidin-1-yl)-2-(trifluoromethyl)benzonitrile] | > 10000 | 246 | – |
| CC1(C)C(=O)N(c2ccc(C#N)c(C(F)(F)F)c2)C(=S)N1Cc1ccc(N=[S@](C)(=O)c2ccccc2)nc1 [Example 26, (R)-4-{4,4-Dimethyl-3-[(6-{[methyl(oxido)phenyl-λ^6-sulfanylidene]amino}pyridin-3-yl)methyl]-5-oxo-2-thioxoimidazolidin-1-yl}-2-(trifluoromethyl)benzonitrile] | > 10000 | 211 | – |
| Cc1ccnn1-c1ccc(CN2C(=S)N(c3ccc(C#N)c(C(F)(F)F)c3)C(=O)C2(C)C)cn1 [Example 27, 4-(4,4-Dimethyl-3-{[6-(5-methyl-1H-pyrazol-1-yl)pyridin-3-yl]methyl}-5-oxo-2-thioxoimidazolidin-1-yl)-2-(trifluoromethyl)benzonitrile] | > 10000 | – | – |
| CC1(C)C(=O)N(c2ccc(C#N)c(C(F)(F)F)c2)C(=S)N1Cc1ccc(OCC(F)(F)CO)nc1 [Example 28, 4-(3-{[6-(2,2-Difluoro-3-hydroxypropoxy)pyridin-3-yl]methyl}-4,4-dimethyl-5-oxo-2-thioxoimidazolidin-1-yl)-2-(trifluoromethyl)benzonitrile] | > 10000 | – | – |
| CC1(C)C(=O)N(c2ccc(C#N)c(C(F)(F)F)c2)C(=S)N1Cc1ccc(-n2ccnn2)nc1 [Example 29, 4-(4,4-Dimethyl-5-oxo-2-thioxo-3-{[6-(1H-1,2,3-triazol-1-yl)pyridin-3-yl]methyl}imidazolidin-1-yl)-2-(trifluoromethyl)benzonitrile] | > 10000 | – | – |
| CC1(C)C(=O)N(c2ccc(C#N)c(C(F)(F)F)c2)C(=S)N1Cc1ccc(-n2nccn2)nc1 [Example 30, 4-(4,4-Dimethyl-5-oxo-2-thioxo-3-{[6-(2H-1,2,3-triazol-2-yl)pyridin-3-yl]methyl}imidazolidin-1-yl)-2-(trifluoromethyl)benzonitrile] | > 10000 | – | – |
| CC1(C)C(=O)N(c2ccc(C#N)c(C(F)(F)F)c2)C(=S)N1Cc1ccc(-n2cnnn2)nc1 [Example 31, 4-(4,4-Dimethyl-5-oxo-3-{[6-(1H-tetrazol-1-yl)pyridin-3-yl]methyl}-2-thioxoimidazolidin-1-yl)-2-(trifluoromethyl)benzonitrile] | > 10000 | ≥ 1000 | – |
| CC1(C)C(=O)N(c2ccc(C#N)c(C(F)(F)F)c2)C(=S)N1Cc1ccc(-n2cnc(Cl)c2Cl)nc1 [Example 32, 4-(3-{[6-(4,5-Dichloro-1H-imidazol-1-yl)pyridin-3-yl]methyl}-4,4-dimethyl-5-oxo-2-thioxoimidazolidin-1-yl)-2-(trifluoromethyl)benzonitrile] | > 10000 | – | – |
| CC1(C)C(=O)N(c2ccc(C#N)c(C(F)(F)F)c2)C(=S)N1Cc1ccc(-n2cnc(C(F)(F)F)n2)nc1 [Example 33, 4-[4,4-Dimethyl-5-oxo-2-thioxo-3-({6-[3-(trifluoromethyl)-1H-1,2,4-triazol-1-yl]pyridin-3-yl}methyl)imidazolidin-1-yl]-2-(trifluoromethyl)benzonitrile] | > 10000 | – | – |
| CC1(C)C(=O)N(c2ccc(C#N)c(C(F)(F)F)c2)C(=S)N1Cc1ccc(-n2cnc(CO)c2)nc1 [Example 34, 4-[3-({6-[4-(Hydroxymethyl)-1H-imidazol-1-yl]pyridin-3-yl}methyl)-4,4-dimethyl-5-oxo-2-thioxoimidazolidin-1-yl]-2-(trifluoromethyl)benzonitrile] | > 10000 | 259 | 331 |
| CC1(C)C(=O)N(c2ccc(C#N)c(C(F)(F)F)c2)C(=S)N1Cc1ccc(OCCN2CCNC2=O)nc1 [Example 35, 4-[4,4-Dimethyl-5-oxo-3-({6-[2-(2-oxoimidazolidin-1-yl)ethoxy]pyridin-3-yl}methyl)-2-thioxoimidazolidin-1-yl]-2-(trifluoromethyl)benzonitrile] | > 10000 | 44.6 | – |
| CC1(C)C(=O)N(c2ccc(C#N)c(C(F)(F)F)c2)C(=S)N1Cc1ccc(N2CCS(=O)(=NC#N)CC2)nc1 [Example 36, {4-[5-({3-[4-Cyano-3-(trifluoromethyl)phenyl]-5,5-dimethyl-4-oxo-2-thioxoimidazolidin-1-yl}methyl)pyridin-2-yl]-1-oxido-1λ^6,4-thiomorpholin-1-ylidene}cyanamide] | > 10000 | ≥ 1000 | 329 |
| Cc1nc(OCC(C)(C)O)ccc1CN1C(=S)N(c2ccc(C#N)c(C(F)(F)F)c2)C(=O)C1(C)C [Example 37, 4-(3-{[6-(2-Hydroxy-2-methylpropoxy)-2-methylpyridin-3-yl]methyl}-4,4-dimethyl-5-oxo-2-thioxoimidazolidin-1-yl)-2-(trifluoromethyl)benzonitrile] | > 10000 | 241 | 323 |
| Cc1nnnn1-c1ccc(CN2C(=S)N(c3ccc(C#N)c(C(F)(F)F)c3)C(=O)C2(C)C)cn1 [Example 38, 4-(4,4-Dimethyl-3-{[6-(5-methyl-1H-tetrazol-1-yl)pyridin-3-yl]methyl}-5-oxo-2-thioxoimidazolidin-1-yl)-2-(trifluoromethyl)benzonitrile] | > 10000 | 366 | – |
